Test results taken from patent US20070203057A1, “COMPOUNDS AND METHODS FOR MODULATING ADHESION MOLECULE FUNCTION” (ADHEREX TECHNOLOGIES, INC., priority 1998, published 2007).
Values belong to the substance of their own block, whether it stands above or below them.

Experiments:
N-cadherin [1] = assay: Neurite outgrowth of rat neurons on monolayers of 3T3 cells expressing N-cadherin; type: cell-based; conditions: for Percent Inhibition of Neurite Outgrowth on 3T3 Cells Expressing N-cadherin: rat neurons, 20 hours
Procedure: (§1) Neurons were cultured on monolayers of 3T3 cells transfected with cDNA encoding N-cadherin essentially as described by Doherty and Walsh, Curr. Op. Neurobiol. 4:49-55, 1994; Williams et al., Neuron 13:583-594, 1994; Hall et al., Cell Adhesion and Commun. 3:441-450, 1996; Doherty and Walsh, Mol. Cell. Neurosci. 8:99-111, 1994; Safell et al., Neuron 18:231-242, 1997. Briefly, monolayers of control 3T3 fibroblasts and 3T3 fibroblasts that express N-cadherin were established by overnight culture of 80,000 cells in individual wells of an 8-chamber well tissue culture slide. 3000 cerebellar neurons isolated from post-natal day 3 mouse brains were cultured for 18 hours on the various monolayers in control media (SATO/2% FCS), or media supplemented with various concentrations of the test peptide to be evaluated. The cultures were then fixed and stained for GAP43 which specifically binds to the neurons and their neurites. The length of the longest neurite on each GAP43 positive neuron was then measured by computer assisted morphometry. For each data point, measurements were made from 100-160 neurons, and the given values show the mean +/− the standard error of the mean.
(§2) The ability of different modulating agents to inhibit neurite outgrowth was also evaluated. […] The peptides were tested at different concentrations. Rat neurons were grown for 20 hours on monolayers of either 3T3 cells, or 3T3 cells expressing N-cadherin. The cultures were then fixed, and the mean neurite length was determined by making measurements on at least 150 neurons for each treatment. The results are presented as the percentage inhibition of neurite outgrowth over 3T3 cells expressing N-cadherin.
Similar experiments, illustrated in Table III, were performed to evaluate the effect of various cyclic peptide modulating agents derived from EC1 of human N-cadherin on neurite outgrowth.
(§3) To further evaluate the specificity of these peptide modulating agents, inhibition of neurite outgrowth was assessed, at 100 μg/ml, on monolayers of 3T3 cells transfected with various molecules responsible for neurite outgrowth. The results, shown in Table IV, illustrate a high level of specificity for N-cadherin mediated neurite outgrowth.
Further experiments were performed as described above to assess the activity of peptide modulating agents derived from EC4 of human N-cadherin.

L1 [2] = molecular target: T1, L1 (Homo sapiens, UniProt P32004); assay: Neurite outgrowth over 3T3 cells transfected with L1; type: cell-based, rat; conditions: 100 μg/ml
T1 construct: expressed in transfected cells; host or cells: 3T3 cells
Procedure: as §2, §3

NCAM [3] = molecular target: T2, NCAM (Homo sapiens, UniProt P13591); assay: Neurite outgrowth over 3T3 cells transfected with NCAM; type: cell-based, rat; conditions: 100 μg/ml
T2 construct: expressed in transfected cells; host or cells: 3T3 cells
Procedure: as §2, §3

N-cadherin-Fc chimera = assay: Binding of peptide to flow cell coated with N-cadherin-Fc chimera (human IgG1 control subtracted); conditions: 250, 500 or 1000 μg/ml, FIG. 7
From the text: As noted above, native HAV-BM sequences, as well as analogues and mimetics thereof, bind to a classical cadherin, preferably within or near an HAV sequence, and modulate a cadherin-mediated response. The ability to bind to a cadherin sequence may generally be evaluated using any binding assay known to those of ordinary skill in the art. For example, a Pharmacia Biosensor machine may be used, as discussed in Jonsson et al., Biotechniques 11:520-27, 1991. A specific example of the technology that measures the interaction of peptides with molecules can be found in Williams et al., J. Biol. Chem. 272:8539-8545, 1997. Real-time BIA (Biomolecular Interaction Analysis) uses the optical phenomenon surface plasmon resonance to monitor biomolecular interactions. […] Binding to the chip is measured in real-time in arbitrary units of resonance (RU). […]
To determine binding, test analytes (e.g., cadherin peptides, such as HAV-containing peptides) may be placed in running buffer and passed simultaneously over test and control flow cells. […] Specific binding to the derivatized sensor chips may be determined automatically by the system by subtraction of […] flow cell responses. […]

NCAM [4] = molecular target: T2, NCAM; assay: Neurite outgrowth of mouse cerebellar neurons on monolayers of 3T3 cells expressing NCAM; type: cell-based; conditions: 250 μg/ml; FIG. 6
Procedure: as §1, with “For each data point, measurements were made from 100-160 neurons, and the given values show the mean +/− the standard error of the mean.” left out
(§4) The mean neurite length was further measured for neurons cultured on monolayers of 3T3 cells, 3T3 cells expressing N-cadherin, 3T3 cells expressing NCAM, and 3T3 cells expressing L1 in media containing the linear peptide H-WLKIDPVNGQI-OH (SEQ ID NO:13; designated N-CAD-CHD2) at a concentration of 250 μg/ml. […]

L1 [5] = molecular target: T1, L1; assay: Neurite outgrowth of mouse cerebellar neurons on monolayers of 3T3 cells expressing L1; type: cell-based; conditions: 250 μg/ml; FIG. 6
Procedure: as §1, with “For each data point, measurements were made from 100-160 neurons, and the given values show the mean +/− the standard error of the mean.” left out
as §4

N-cadherin [6] = assay: Neurite outgrowth of mouse cerebellar neurons on monolayers of 3T3 cells expressing N-cadherin; type: cell-based
From the text: Within a representative neurite outgrowth assay, neurons may be cultured on a monolayer of cells (e.g., 3T3 fibroblasts) that express N-cadherin. […] For example, neurons may be cultured on monolayers of 3T3 cells transfected with cDNA encoding N-cadherin essentially as described by Doherty and Walsh, Curr. Op. Neurobiol. 4:49-55, 1994; Williams et al., Neuron 13:583-594, 1994; Hall et al., Cell Adhesion and Commun. 3:441-450, 1996; Doherty and Walsh, Mol. Cell. Neurosci. 8:99-111, 1994; and Safell et al., Neuron 18:231-242, 1997. Briefly, monolayers of control 3T3 fibroblasts and 3T3 fibroblasts that express N-cadherin may be established by overnight culture of 80,000 cells in individual wells of an 8-chamber well tissue culture slide. […] The length of the longest neurite on each GAP43 positive neuron may be measured by computer assisted morphometry.
Neurons were cultured on monolayers of 3T3 cells transfected with cDNA encoding N-cadherin essentially as described by Doherty and Walsh, Curr. […] 3000 cerebellar neurons isolated from post-natal day 3 mouse brains were cultured for 18 hours on the various monolayers in control media (SATO/2% FCS), or media supplemented with various concentrations of the test peptide to be evaluated. […] The length of the longest neurite on each GAP43 positive neuron was then measured by computer assisted morphometry. […]

[7] = test system: human ovarian cancer cells (SKOV3); assay: Disruption of tumor cell adhesion in SKOV3 monolayer cultures; type: cell-based; conditions: 1 mg/mL, 24 hours; FIG. 8B
From the text: Within certain cell adhesion assays, the addition of a modulating agent to cells that express a cadherin results in disruption of cell adhesion. A “cadherin-expressing cell,” as used herein, may be any type of cell that expresses at least one cadherin on the cell surface at a detectable level, using standard techniques such as immunocytochemical protocols (e.g., Blaschuk and Farookhi, Dev. Biol. 136:564-567, 1989). Cadherin-expressing cells include endothelial, epithelial and/or cancer cells. For example, such cells may be plated under standard conditions that, in the absence of modulating agent, permit cell adhesion. In the presence of modulating agent (e.g., 500 μg/mL), disruption of cell adhesion may be determined visually within 24 hours, by observing retraction of the cells from one another.
Monolayer cultures of human ovarian cancer cells (SKOV3) were grown in the presence and absence of the peptide N-Ac-INPISGQ-NH2 (SEQ ID NO:22).

FGFR = assay: Neurite outgrowth over 3T3 cells transfected with FGFR; type: cell-based, rat; conditions: 100 μg/ml
Procedure: as §2, §3

[8] = 3 μg/ml, cyclic peptides, Table III
[9] = 10 μg/ml, cyclic peptides, Table III
[10] = 33 μg/ml, cyclic peptides, Table III
[11] = 100 μg/ml, cyclic peptides, Table III
[12] = 11 μg/ml, EC4-derived peptides, Table V

T2 sequence (P13591 20-858, species assumed): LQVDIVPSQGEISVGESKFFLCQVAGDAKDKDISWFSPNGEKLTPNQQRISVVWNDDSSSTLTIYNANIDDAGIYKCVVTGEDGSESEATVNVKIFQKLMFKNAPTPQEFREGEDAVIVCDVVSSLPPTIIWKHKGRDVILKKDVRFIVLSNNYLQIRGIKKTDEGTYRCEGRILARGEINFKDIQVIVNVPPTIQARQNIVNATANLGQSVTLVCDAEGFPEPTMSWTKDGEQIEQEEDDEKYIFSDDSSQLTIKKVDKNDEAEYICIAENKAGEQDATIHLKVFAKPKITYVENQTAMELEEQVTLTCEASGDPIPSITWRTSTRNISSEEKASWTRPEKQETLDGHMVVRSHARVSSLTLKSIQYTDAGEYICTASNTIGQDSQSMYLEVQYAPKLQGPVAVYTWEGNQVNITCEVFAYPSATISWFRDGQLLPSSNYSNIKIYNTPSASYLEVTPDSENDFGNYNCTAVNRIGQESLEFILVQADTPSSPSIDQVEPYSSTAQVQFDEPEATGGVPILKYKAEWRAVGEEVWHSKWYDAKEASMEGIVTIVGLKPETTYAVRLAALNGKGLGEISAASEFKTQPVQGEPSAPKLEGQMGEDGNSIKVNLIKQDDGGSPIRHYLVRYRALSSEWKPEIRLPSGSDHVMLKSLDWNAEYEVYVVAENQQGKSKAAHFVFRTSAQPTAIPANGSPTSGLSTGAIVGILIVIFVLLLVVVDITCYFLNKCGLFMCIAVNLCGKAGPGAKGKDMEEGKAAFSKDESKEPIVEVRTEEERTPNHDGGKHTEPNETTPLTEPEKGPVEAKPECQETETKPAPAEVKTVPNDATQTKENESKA
T1 sequence (P32004 20-1257): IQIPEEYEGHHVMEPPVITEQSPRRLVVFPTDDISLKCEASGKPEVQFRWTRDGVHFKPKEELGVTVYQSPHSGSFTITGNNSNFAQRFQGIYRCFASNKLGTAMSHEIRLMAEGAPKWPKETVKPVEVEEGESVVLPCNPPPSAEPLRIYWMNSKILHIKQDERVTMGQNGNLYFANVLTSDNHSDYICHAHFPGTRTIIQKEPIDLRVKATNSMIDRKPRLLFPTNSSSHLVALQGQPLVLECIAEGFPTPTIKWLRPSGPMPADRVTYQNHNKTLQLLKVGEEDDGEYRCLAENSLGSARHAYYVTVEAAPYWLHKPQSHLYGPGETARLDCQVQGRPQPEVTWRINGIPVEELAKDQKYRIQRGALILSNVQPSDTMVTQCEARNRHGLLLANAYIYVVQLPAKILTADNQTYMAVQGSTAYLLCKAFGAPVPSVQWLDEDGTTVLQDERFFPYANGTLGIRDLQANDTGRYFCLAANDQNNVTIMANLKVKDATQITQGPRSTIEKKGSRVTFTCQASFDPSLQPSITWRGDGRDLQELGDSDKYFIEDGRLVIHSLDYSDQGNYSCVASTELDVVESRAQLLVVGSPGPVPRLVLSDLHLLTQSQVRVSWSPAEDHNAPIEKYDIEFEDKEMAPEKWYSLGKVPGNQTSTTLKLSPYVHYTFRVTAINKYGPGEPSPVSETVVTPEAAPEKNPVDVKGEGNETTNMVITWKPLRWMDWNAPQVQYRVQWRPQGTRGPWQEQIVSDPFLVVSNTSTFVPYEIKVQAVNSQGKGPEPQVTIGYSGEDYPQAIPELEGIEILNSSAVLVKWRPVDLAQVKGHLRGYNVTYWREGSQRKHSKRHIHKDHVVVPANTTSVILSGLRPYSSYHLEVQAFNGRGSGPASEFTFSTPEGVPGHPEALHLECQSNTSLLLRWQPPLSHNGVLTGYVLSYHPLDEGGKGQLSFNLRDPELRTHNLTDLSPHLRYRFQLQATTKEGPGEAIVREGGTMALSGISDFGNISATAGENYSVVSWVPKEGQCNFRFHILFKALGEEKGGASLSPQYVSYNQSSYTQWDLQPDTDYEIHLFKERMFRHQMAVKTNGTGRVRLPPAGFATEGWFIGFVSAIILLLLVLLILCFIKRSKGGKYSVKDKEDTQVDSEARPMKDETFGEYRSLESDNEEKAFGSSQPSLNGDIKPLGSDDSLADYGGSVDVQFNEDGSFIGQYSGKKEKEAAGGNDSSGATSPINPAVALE

Percent Inhibition of Neurite Outgrowth over 3T3 Cells Expressing L1 (L1 [2]): 7.8 ± 3.8%
Percent Inhibition of Neurite Outgrowth over 3T3 Cells Expressing NCAM (NCAM [3]): 13.7 ± 7.1%
Substance: Ac-CINPIC-NH2 (cysteine pairing not given here)
Percent Inhibition of Neurite Outgrowth (N-cadherin [1]; [8]): 7.5 ± 3.2%
Percent Inhibition of Neurite Outgrowth (N-cadherin [1]; [9]): 31.5 ± 7.5%
Percent Inhibition of Neurite Outgrowth (N-cadherin [1]; [10]): 56.2 ± 6.9%
Percent Inhibition of Neurite Outgrowth over 3T3 Cells Expressing N-cadherin (N-cadherin [1]; 100 μg/ml, Table IV): 94.5 ± 10.5%
Percent Inhibition of Neurite Outgrowth (N-cadherin [1]; [11]): 94.5 ± 10.5%
EC50 (N-cadherin [1]; cyclic peptides, Table III): 38.2 µM

Substance: Ac-CINPISC-NH2 (cysteine pairing not given here)
Percent Inhibition of Neurite Outgrowth (N-cadherin [1]; [9]): 21.8 ± 1.2%
Percent Inhibition of Neurite Outgrowth (N-cadherin [1]; [10]): 39.5 ± 4.3%
Percent Inhibition of Neurite Outgrowth (N-cadherin [1]; [11]): 73.4 ± 2.2%
EC50 (N-cadherin [1]; cyclic peptides, Table III): 38.1 µM

Substance: H-WLKIDPVNGQI-OH
Binding to N-cadherin-Fc chimera coated flow cell (N-cadherin-Fc chimera): association of the peptide to the flow cell coated with the N-cadherin Fc chimera
Inhibition of neurite outgrowth on 3T3 cells expressing NCAM (NCAM [4]): Only neurite outgrowth on 3T3 cells expressing N-cadherin was inhibited
Inhibition of neurite outgrowth on 3T3 cells expressing L1 (L1 [5]): Only neurite outgrowth on 3T3 cells expressing N-cadherin was inhibited
Inhibition of neurite outgrowth on 3T3 cells expressing N-cadherin (N-cadherin [6]; 250 μg/ml, FIG. 6): inhibited
Inhibition of the N-cadherin neurite outgrowth response (N-cadherin [6]; 125 and 250 μg/ml, FIG. 5): fully inhibited

Substance: N-Ac-CIDPVNC-NH2 (also: cyclic, type of ring not given here) [cyclic peptide comprising IDPVN, from EC4 of human N-cadherin]
Percent Inhibition of Neurite Outgrowth (N-cadherin [1]; [12]): 15.4 ± 8.9%

Substance: N-Ac-CINPC-NH2
Percent Inhibition of Neurite Outgrowth (N-cadherin [1]; [8]): 17.4 ± 5.7%
Percent Inhibition of Neurite Outgrowth (N-cadherin [1]; [9]): 51.9 ± 2.5%
Percent Inhibition of Neurite Outgrowth (N-cadherin [1]; [10]): 71.0 ± 6.5%
Percent Inhibition of Neurite Outgrowth (N-cadherin [1]; [11]): 98.1 ± 8.2%
EC50 (N-cadherin [1]; cyclic peptides, Table III): 14.3 µM

Substance: N-Ac-IDPVNGQ-NH2 [peptide derived from EC4 of human N-cadherin]
Percent Inhibition of Neurite Outgrowth (N-cadherin [1]; [12]): 0.6 ± 10.0%

Substance: N-Ac-INAISGQ-NH2 [control peptide with change in a specific amino acid]
Percent Inhibition of Neurite Outgrowth on 3T3 Cells Expressing N-cadherin (N-cadherin [1]; 33 μg/ml): 12.3 ± 6.2%

Percent Inhibition of Neurite Outgrowth over 3T3 Cells Expressing L1 (L1 [2]): 0.3 ± 1.8%
Percent Inhibition of Neurite Outgrowth over 3T3 Cells Expressing NCAM (NCAM [3]): 6.2 ± 3.0%
Substance: N-Ac-INPISGQ-NH2 [linear peptide derived from EC1 of human N-cadherin]
Percent Inhibition of Neurite Outgrowth on 3T3 Cells Expressing N-cadherin (N-cadherin [1]; 3 μg/ml): 19.5 ± 4.3%
Percent Inhibition of Neurite Outgrowth on 3T3 Cells Expressing N-cadherin (N-cadherin [1]; 10 μg/ml): 47.8 ± 4.1%
Percent Inhibition of Neurite Outgrowth on 3T3 Cells Expressing N-cadherin (N-cadherin [1]; 33 μg/ml): 73.0 ± 4.6%
Disruption of SKOV3 cell adhesion (morphology) [7]: retract from one another and round-up
Percent Inhibition of Neurite Outgrowth over 3T3 Cells Expressing FGFR (FGFR): 1.9 ± 5.1%
